The values that follow come from US7205119B2, “HA-1 antigen” (Rijksuniversiteit te Leiden, priority 1997, dated 2007).

In experiment [1] the test system is recombinant HLA-A2.1 and b2-microglobulin. The experiment in a line: HLA-A2.1 peptide binding assay (inhibition of binding of fluorescent standard peptide, cell free). Details: species or system human. As to conditions: for HLA-A2.1 binder class: class assigned from IC50. The protocol:
(§1) FIG. 4a. Binding of HA-1^H and HA-1^R peptides to HLA-A2.1. The binding of HA-1^H and HA-1^R peptides were assayed for their ability to inhibit the binding of fluorescent peptide […] (SEQ ID NO: 17) to recombinant HLA-A2.1 and b2-microglobulin in a cell free peptide binding assay. One representative experiment is shown. […] (FIG. 4b.) Reconstitution assay with different concentrations of synthetic HA-1^R peptide with HA-1 specific T cells. The HA-1^R peptide was titrated and preincubated with T2 cells. Three HA-1 specific T cell clones, 5W38, 3HA15 and clone 15 were added and a 4 hr ^51Cr-release assay was performed. Background lysis of T2 by the CTL in the absence of any peptide was for 3HA15 4%, for clone 15 10% and for 5W38 2%. Positive control lysis was for 3HA15 46%, for clone 15 47% and 5W38 48%.
Reconstitution and HLA-A2.1 binding assays were performed to determine the capacity of HA-1^R peptide […] (SEQ ID NO: 5) to bind to HLA-A2.1 and to be recognized by the HA-1 specific T cell clones. […] Different concentrations of […] (SEQ ID NO: 5) were tested in a ^51Cr-release assay with three HA-1 specific T cell clones.
HLA-A2.1 peptide binding assay. A quantitative assay for HLA-A2.1 binding peptides based on the inhibition of binding of the fluorescent labeled standard peptide Hbc 18–27 F to C6 ([…]) (SEQ ID NO: 17) to recombinant HLA-A2.1 protein and B2-microglobulin was used^26,27. In short, HLA-A2.1 concentrations yielding approximately 40–60% bound fluorescent standard peptide were used with 15 pmol/well (150 nM) B2-microglobulin (Sigma). Various doses of the test peptides were coincubated with 100 fmol/well (1 nM) fluorescent standard peptide, HLA-A2.1 and B2-microglobulin for 1 day at room temperature in the dark in a volume of […] in assay.buffer. The percent of MHC-bound fluorescence was determined by gel filtration and the 50% inhibitory dose was deduced for each peptide using one-site competition non-linear regression analysis with the prismgraph software. […]

For experiment [2], the system named is HA-1 specific T cell clones 3HA15, clone 15 and 5W38 (T2 target cells). The experiment in a line: 51Cr-release reconstitution assay (CML assay) with peptide-loaded T2 cells and HA-1 specific CTL clones. It counts as cell-based, human.
Source text: FIG. 2. Sequencing of mH HA-1 peptide by tandem mass spectrometry. (FIG. 2a.) Collision activation dissociation mass spectrum of peptide candidate with m/z of 513. (FIG. 2b.) Reconstitution assay with different concentrations of synthetic mH HA-1 peptide with three HA-1 specific T cell clones, 3HA15, clone 15 and 5W38. Background lysis of T2 by the CTL in the absence of any peptide was for 3HA15 4%, for clone 15 10% and for 5W38 2%. Positive control lysis was for 3HA15 46%, for clone 15 47% and 5W38 48%.
as §1, with “48%. […]” for “48%.”

Where no end group is shown, it is not given here.

For the sequence VLRDDLLEA, in experiment [1], the “fold lower binding affinity for HLA-A2.1 versus HA-1^H peptide” value is 10 fold and the HLA-A2.1 binder class result is given as “intermediate binders”. In addition, in experiment [2] (clone 3HA15 only (one out of three clones showed recognition)), the “peptide concentration needed for recognition relative to that for the HA-1^H peptide” value is recorded as 1000 times. For the sequence “YXTDRVMTV [peptide candidate m/z 550; X stands for Isoleucine or Leucine]”, in experiment [2] (results not shown), the “reconstitution of the HA-1 epitope by synthetic peptide” value is “not able to reconstitute the HA-1 epitope”. Consider VLHDDLLEA, for which the HLA-A2.1 binder class result in experiment [1] is listed as “high affinity binders”.
